Measured values as given in PMC4618117, “Synthesis and Antiproliferative Activity of Steroidal Thiosemicarbazone Platinum (Pt(II)) Complexes” (Bioinorganic Chemistry and Applications, 2015).
Where two headings read alike, the source gives them in different places.

What was measured:
[1] = system: Bel-7404 (human liver carcinoma) cells; test: MTT antiproliferative assay, Bel-7404; format: cell-based; conditions: for IC50: mean of three independent determinations, read-out: Cytotoxicity IC50 Bel-7404
Procedure: (§1) Melting points were determined on an X4 apparatus (Beijing Tech Instrument Co. Ltd., Beijing, China) and were uncorrected. The ^1H and ^13C NMR spectra were recorded in CDCl3 on a Bruker AV-600 spectrometer at working frequencies 600 and 150 MHz and a Bruker AV-300 spectrometer at working frequencies 300 and 75 MHz, respectively. Chemical shifts are expressed in parts per million (δ) values and coupling constants (J) in Hertz. Infrared spectra were measured with a Thermo Scientific Nicolet IS-10 Spectrophotometer (Thermo Scientific, America). HREIMS was measured on an Agilent 6210 TOFMS instrument (Agilent Technologies, America). The cell proliferation assay was undertaken by a MTT method using 96-well plates on a […] MK3 analysis spectrometer (Thermo Scientific, Shanghai, China).
(§2) The detailed procedure has been reported in our previous work.
(§3) The antiproliferative activities of all steroidal thiosemicarbazones and their Pt(II) metal complexes were determined in vitro on Bel 7404, HeLa, and HEK293T. […] The results are summarized as IC50 values in μM in Table 1.

[2] = system: HeLa (human cervical carcinoma) cells; test: MTT antiproliferative assay, HeLa; format: cell-based; conditions: for IC50: mean of three independent determinations, read-out: Cytotoxicity IC50 HeLa
Procedure: as §1, §2, §3

[3] = system: HEK293T (normal kidney epithelial cells); test: MTT antiproliferative assay, HEK293T; format: cell-based; conditions: mean of three independent determinations, read-out: Cytotoxicity IC50 HEK293T
Procedure: as §1, §2
(§4) The antiproliferative activities of all steroidal thiosemicarbazones and their Pt(II) metal complexes were determined in vitro on Bel 7404, HeLa, and HEK293T.

[4] = MTT antiproliferative assay, HEK293T; format: cell-based; conditions: human, HEK293T normal kidney epithelial cells, mean of three independent determinations, read-out: Cytotoxicity IC50 HEK293T
Procedure: as §1, §2, §4

[5] = Homo sapiens, BEL-7404, MTT assay

Compound	melting point [°C]	IC50 [1, 5] [µM]	IC50 ([2]; Homo sapiens, HeLa, MTT assay) [µM]	IC50 [3] [µM]	IC50 ([1]; MTT assay) [µM]	Cytotoxicity against Bel 7404 cells (in words) ([1]; MTT assay, verbal summary)	SI Bel 7404 (Selectivity Index) ([1]; ratio IC50 HEK293T versus IC50 Bel 7404)	IC50 ([2]; MTT assay) [µM]	Cytotoxicity against HeLa cells (in words) ([2]; MTT assay, verbal summary)	SI HeLa (Selectivity Index) ([2]; ratio IC50 HEK293T versus IC50 HeLa)	IC50 [4] [µM]
CC12CCC3c4ccc(O)cc4CCC3C1CCC2=NNC(N)=S (stereo not drawn) [Compound 2, 3β-Hydroxyestron-17-thiosemicarbazone]	254 to 256	19	34	–	–	–	–	–	–	–	–
CC12CCC3c4ccc(O)cc4CCC3C1CCC2=[N+]1NC(N)=[S+][Pt-2]1([Cl])[Cl] (stereo not shown) [Compound 3, [PtL ^2 Cl 2]]	–	–	–	> 200	39	obvious cytotoxicity	> 5.1	23	obvious cytotoxicity	> 8.7	–
CC(=O)Oc1ccc2c(c1)CCC1C2CCC2(C)/C(=N/NC(N)=S)CCC12 (stereo not drawn) [Compound 5, 3β-Acetyloxyestron-17-thiosemicarbazone]	248 to 249	> 200	42	–	–	–	–	–	–	–	> 200
COC(=O)CCC(C)C1CCC2C3C(=O)CC4CC(=NNC(N)=S)CCC4(C)C3CCC12C (stereo not shown) [Compound 8, Methyl 3-Thiosemicarbazonyl-7-oxochenodeoxycholicate]	285 to 286	> 200	96	–	–	–	–	–	–	–	> 200
COC(=O)CCC(C)C1CCC2C3C(O)CC4CC(=NNC(N)=S)CCC4(C)C3CCC12C (stereo not shown) [Compound 10, Methyl 3-Thiosemicarbazonyl-7-hydroxychenodeoxycholicate]	–	> 200	142	–	–	–	–	–	–	–	> 200
COC(=O)CCC(C)C1CCC2C3CCC4CC(=NNC(N)=S)CCC4(C)C3CC(=O)C12C (stereo not shown) [Compound 13, Methyl 3-Thiosemicarbazonyl-12-oxo-7-deoxycholicate]	125 to 127	> 200	> 200	–	–	–	–	–	–	–	> 200
